From patent US10653695B2, “Pharmaceutical formulations of neflamapimod” (EIP Pharma, LLC, priority 2018, dated 2020)

Assays:
[1] = cited from earlier work
[2] = Dissolution testing (USP <711>, Apparatus 2) of neflamapimod capsules and blends, including on stability; type: physicochemical; conditions: powder-in-capsule vs capsules stored at 40° C./75% RH; FIG. 1
Text: USP Dissolution Acceptance Criteria. Dissolution testing of a drug product is a method for evaluating physiological availability that depends upon having the drug in a dissolved state. The United States Pharmacopoeia (“USP”) dissolution testing <USP 711> involves three stages with the acceptance criteria defined for each stage as a function of a quantity Q, a percentage of the label value that is established for each drug product.
Dissolution testing data described herein are generated according to the specifications shown below in Table 3 and using the procedure set forth by the United States Pharmacopeial Convention in USP <711>.
Determined by the procedure set forth in Example 1.1.

Dissolution compared to the aged capsules [2]: better dissolution
SMILES: O=c1ncn2nc(Sc3ccc(F)cc3F)ccc2c1-c1c(Cl)cccc1Cl [Neflamapimod]
Solubility in water [1]: very low
